Results as given in ChEMBL document CHEMBL4804286, “3-amino-4-(4-(4 (dimethylcarbamoyl) phenyl)-1,4-diazepan-1-yl) thieno [2,3-b] pyridine-2-carboxamide for use in cancer therapy and formulations comprising the same” (2020).
Where “and” joins values, the source holds several entries; their conditions need not be identical. Equal values may be shown once. Calls of active or inactive are those of the source. The rule behind the calls is not given here.

What was measured:
[1] = target: Ribosomal protein S6 kinase alpha-2 (Homo sapiens) (UniProt Q15349); assay: Inhibition of human N-terminal RSK3 kinase domain 1 assessed as percent of control at 2000 nM by KINOMEscan assay relative to control; parameters: scale not given: the % may be the effect or the level left
Chain of Ribosomal protein S6 kinase alpha-2 (Homo sapiens) (Q15349 whole entry, the tested form may be a part): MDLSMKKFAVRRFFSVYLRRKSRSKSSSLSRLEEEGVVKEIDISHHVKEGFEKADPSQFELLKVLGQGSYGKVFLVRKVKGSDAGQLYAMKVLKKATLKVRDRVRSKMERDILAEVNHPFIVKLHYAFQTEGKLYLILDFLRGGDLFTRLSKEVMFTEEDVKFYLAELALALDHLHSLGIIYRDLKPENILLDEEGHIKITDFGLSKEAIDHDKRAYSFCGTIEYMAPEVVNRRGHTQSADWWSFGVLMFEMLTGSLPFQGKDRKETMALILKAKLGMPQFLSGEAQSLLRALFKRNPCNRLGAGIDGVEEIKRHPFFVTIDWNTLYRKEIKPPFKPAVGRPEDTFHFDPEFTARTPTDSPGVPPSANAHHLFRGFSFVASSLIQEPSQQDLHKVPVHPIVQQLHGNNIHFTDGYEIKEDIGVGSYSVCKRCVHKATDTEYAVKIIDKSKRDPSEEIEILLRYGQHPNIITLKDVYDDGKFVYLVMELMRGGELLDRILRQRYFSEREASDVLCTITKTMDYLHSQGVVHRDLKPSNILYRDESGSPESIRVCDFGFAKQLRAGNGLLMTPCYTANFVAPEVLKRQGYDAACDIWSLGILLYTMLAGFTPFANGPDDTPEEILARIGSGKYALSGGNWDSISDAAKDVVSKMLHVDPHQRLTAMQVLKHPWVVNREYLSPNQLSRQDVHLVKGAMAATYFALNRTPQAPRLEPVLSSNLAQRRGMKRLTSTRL

[2] = target: Platelet-derived growth factor receptor alpha (Homo sapiens) (UniProt P16234); assay: Inhibition of human PDGFRA assessed as percent of control at 2000 nM by KINOMEscan assay relative to control; parameters: scale not given: the % may be the effect or the level left
[3] = target: Tyrosine-protein kinase receptor Tie-1 (Homo sapiens) (UniProt P35590); assay: Inhibition of human TIE1 assessed as percent of control at 2000 nM by KINOMEscan assay relative to control; parameters: scale not given: the % may be the effect or the level left
[4] = target: 1-phosphatidylinositol 3-phosphate 5-kinase (Homo sapiens) (UniProt Q9Y2I7); assay: Inhibition of human PIKFYVE assessed as percent of control at 2000 nM by KINOMEscan assay relative to control; parameters: scale not given: the % may be the effect or the level left
Chain of 1-phosphatidylinositol 3-phosphate 5-kinase (Homo sapiens) (Q9Y2I7 whole entry, the tested form may be a part): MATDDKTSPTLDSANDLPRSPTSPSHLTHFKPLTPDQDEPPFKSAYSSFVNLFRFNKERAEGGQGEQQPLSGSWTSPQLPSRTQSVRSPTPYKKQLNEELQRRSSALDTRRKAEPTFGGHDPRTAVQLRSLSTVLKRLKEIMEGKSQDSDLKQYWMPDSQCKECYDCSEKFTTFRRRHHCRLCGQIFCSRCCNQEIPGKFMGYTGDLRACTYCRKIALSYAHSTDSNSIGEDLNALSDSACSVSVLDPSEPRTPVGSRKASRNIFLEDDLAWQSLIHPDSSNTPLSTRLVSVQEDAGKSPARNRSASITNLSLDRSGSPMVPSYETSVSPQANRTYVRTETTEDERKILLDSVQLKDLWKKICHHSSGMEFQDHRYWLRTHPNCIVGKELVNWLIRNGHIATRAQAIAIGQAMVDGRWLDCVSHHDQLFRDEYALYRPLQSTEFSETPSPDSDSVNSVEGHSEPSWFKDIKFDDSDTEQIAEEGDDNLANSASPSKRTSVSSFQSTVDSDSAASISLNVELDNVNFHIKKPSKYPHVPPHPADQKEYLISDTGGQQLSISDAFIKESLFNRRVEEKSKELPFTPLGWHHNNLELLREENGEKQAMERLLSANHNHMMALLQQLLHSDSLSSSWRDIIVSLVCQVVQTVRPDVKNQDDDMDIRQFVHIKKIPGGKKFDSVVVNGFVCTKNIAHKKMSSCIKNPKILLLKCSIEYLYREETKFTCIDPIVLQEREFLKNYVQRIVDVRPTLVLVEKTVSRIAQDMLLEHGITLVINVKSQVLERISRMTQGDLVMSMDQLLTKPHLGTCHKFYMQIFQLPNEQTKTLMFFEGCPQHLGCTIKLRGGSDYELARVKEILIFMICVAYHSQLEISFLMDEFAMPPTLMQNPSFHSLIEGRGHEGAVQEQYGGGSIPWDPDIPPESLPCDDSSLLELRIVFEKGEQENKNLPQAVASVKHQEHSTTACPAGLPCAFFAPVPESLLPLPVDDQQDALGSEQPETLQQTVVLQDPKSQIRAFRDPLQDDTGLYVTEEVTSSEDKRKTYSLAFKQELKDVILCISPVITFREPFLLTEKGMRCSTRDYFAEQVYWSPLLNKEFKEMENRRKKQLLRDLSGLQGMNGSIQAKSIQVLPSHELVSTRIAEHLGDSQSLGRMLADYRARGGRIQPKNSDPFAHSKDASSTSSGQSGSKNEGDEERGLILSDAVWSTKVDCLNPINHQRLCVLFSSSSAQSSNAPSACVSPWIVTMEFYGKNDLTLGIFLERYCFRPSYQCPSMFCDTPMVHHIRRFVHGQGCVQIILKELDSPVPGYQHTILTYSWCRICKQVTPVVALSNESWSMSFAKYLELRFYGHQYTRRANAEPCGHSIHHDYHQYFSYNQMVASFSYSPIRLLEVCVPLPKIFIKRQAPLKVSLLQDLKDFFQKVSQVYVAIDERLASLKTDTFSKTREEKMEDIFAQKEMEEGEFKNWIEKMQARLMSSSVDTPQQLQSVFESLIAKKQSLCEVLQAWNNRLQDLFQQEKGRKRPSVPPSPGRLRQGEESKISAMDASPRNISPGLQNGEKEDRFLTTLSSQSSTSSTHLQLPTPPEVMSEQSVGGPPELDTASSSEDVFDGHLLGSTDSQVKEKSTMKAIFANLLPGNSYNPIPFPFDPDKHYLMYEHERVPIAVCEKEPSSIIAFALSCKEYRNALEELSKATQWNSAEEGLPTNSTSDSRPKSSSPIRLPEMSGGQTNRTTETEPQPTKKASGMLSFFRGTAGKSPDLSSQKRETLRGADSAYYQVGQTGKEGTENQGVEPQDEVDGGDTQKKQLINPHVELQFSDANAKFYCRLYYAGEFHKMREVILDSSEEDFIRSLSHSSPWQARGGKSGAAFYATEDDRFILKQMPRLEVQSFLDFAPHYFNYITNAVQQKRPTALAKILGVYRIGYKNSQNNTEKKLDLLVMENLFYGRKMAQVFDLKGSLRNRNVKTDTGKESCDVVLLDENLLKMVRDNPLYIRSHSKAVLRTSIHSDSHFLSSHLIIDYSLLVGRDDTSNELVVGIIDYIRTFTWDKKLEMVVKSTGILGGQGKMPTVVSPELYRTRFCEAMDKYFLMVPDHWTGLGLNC

[5] = target: Ribosomal protein S6 kinase alpha-6 (Homo sapiens) (UniProt Q9UK32); assay: Inhibition of human N-terminal RSK4 kinase domain 1 assessed as percent of control at 2000 nM by KINOMEscan assay relative to control; parameters: scale not given: the % may be the effect or the level left
MDA-MB-468 = assay: Antitumor activity against human MDA-MB-468 cells xenografted in female immunodeficient NSG mouse assessed as decrease in tumor weight at 250 ppm, po incorporated into medicated diet for 13 days followed by 5 mg/kg, po dose administered daily and after 37 days administered 8 mg/kg, po dose; format: functional, organism-based
[6] = tested on: Receptor-type tyrosine-protein kinase FLT3 (Homo sapiens), P36888 [D835H]; assay: Inhibition of human FLT3 D835H mutant assessed as percent of control at 2000 nM by KINOMEscan assay relative to control; parameters: scale not given: the % may be the effect or the level left
[7] = target: Receptor tyrosine-protein kinase erbB-4 (Homo sapiens) (UniProt Q15303); assay: Inhibition of human ERBB4 assessed as percent of control at 2000 nM by KINOMEscan assay relative to control; parameters: scale not given: the % may be the effect or the level left
Chain of Receptor tyrosine-protein kinase erbB-4 (Homo sapiens) (Q15303 whole entry): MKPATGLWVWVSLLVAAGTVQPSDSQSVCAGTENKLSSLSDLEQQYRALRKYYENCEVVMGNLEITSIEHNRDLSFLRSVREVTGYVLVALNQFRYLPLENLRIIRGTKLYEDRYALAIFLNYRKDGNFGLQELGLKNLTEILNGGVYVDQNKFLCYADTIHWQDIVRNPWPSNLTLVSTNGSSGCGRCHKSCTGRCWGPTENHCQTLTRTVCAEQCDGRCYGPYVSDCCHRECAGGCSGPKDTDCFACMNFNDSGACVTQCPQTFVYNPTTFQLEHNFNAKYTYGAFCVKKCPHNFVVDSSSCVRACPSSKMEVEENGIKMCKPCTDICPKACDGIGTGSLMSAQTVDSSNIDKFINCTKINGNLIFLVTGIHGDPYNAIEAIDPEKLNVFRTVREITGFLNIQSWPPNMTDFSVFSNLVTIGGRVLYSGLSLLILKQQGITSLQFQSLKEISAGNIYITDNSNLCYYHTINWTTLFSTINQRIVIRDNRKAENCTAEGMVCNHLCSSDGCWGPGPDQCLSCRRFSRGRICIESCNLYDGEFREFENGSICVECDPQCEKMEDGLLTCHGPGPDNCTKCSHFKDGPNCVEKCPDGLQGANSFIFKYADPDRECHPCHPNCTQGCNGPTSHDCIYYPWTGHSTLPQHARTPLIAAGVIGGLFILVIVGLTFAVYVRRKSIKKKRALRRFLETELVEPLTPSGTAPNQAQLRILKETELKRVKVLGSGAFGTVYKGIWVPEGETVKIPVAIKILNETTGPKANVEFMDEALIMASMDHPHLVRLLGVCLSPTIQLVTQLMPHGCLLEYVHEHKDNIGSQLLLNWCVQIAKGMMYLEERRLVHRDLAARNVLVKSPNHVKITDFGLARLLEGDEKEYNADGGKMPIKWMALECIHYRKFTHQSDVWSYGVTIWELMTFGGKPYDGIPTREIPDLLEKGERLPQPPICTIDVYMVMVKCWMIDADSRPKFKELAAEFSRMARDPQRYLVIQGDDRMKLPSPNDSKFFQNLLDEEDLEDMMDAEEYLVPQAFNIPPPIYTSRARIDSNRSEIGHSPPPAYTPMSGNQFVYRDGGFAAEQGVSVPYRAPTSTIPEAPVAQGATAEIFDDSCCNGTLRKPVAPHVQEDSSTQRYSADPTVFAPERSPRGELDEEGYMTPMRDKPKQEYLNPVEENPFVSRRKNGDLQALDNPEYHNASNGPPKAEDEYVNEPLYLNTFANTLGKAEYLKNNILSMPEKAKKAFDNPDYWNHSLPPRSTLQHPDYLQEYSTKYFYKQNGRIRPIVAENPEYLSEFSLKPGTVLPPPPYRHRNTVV

[8] = target: Glycogen synthase kinase-3 beta (Homo sapiens) (UniProt P49841); assay: Inhibition of human GSK3B assessed as percent of control at 2000 nM by KINOMEscan assay relative to control; parameters: scale not given: the % may be the effect or the level left
[9] = tested on: Receptor-type tyrosine-protein kinase FLT3 (Homo sapiens), P36888 [UNDEFINED MUTATION]; assay: Inhibition of human FLT3 ITD/F691L double mutant assessed as percent of control at 2000 nM by KINOMEscan assay relative to control; parameters: scale not given: the % may be the effect or the level left
[10] = tested on: ALK tyrosine kinase receptor (Homo sapiens), Q9UM73 [C1156Y]; assay: Inhibition of human ALK C1156Y mutant assessed as percent of control at 2000 nM by KINOMEscan assay relative to control; parameters: scale not given: the % may be the effect or the level left
[11] = target: Serine/threonine-protein kinase Chk1 (Homo sapiens) (UniProt O14757); assay: Inhibition of human CHEK1 assessed as percent of control at 2000 nM by KINOMEscan assay relative to control; parameters: scale not given: the % may be the effect or the level left
[12] = target: Death-associated protein kinase 2 (Homo sapiens) (UniProt Q9UIK4); assay: Inhibition of human DAPK2 assessed as percent of control at 2000 nM by KINOMEscan assay relative to control; parameters: scale not given: the % may be the effect or the level left
[13] = target: cGMP-dependent protein kinase 2 (Homo sapiens) (UniProt Q13237); assay: Inhibition of human PRKG2 assessed as percent of control at 2000 nM by KINOMEscan assay relative to control; parameters: scale not given: the % may be the effect or the level left
[14] = target: MAP/microtubule affinity-regulating kinase 3 (Homo sapiens) (UniProt P27448); assay: Inhibition of human MARK3 assessed as percent of control at 2000 nM by KINOMEscan assay relative to control; parameters: scale not given: the % may be the effect or the level left
[15] = target: Muscle, skeletal receptor tyrosine-protein kinase (Homo sapiens) (UniProt O15146); assay: Inhibition of human MUSK assessed as percent of control at 2000 nM by KINOMEscan assay relative to control; parameters: scale not given: the % may be the effect or the level left
[16] = target: Receptor-type tyrosine-protein kinase FLT3 (Homo sapiens) (UniProt P36888); assay: Inhibition of human autoinhibited FLT3 assessed as percent of control at 2000 nM by KINOMEscan assay relative to control; parameters: scale not given: the % may be the effect or the level left
[17] = target: Misshapen-like kinase 1 (Homo sapiens) (UniProt Q8N4C8); assay: Inhibition of human MINK assessed as percent of control at 2000 nM by KINOMEscan assay relative to control; parameters: scale not given: the % may be the effect or the level left
[18] = target: Ephrin type-B receptor 3 (Homo sapiens) (UniProt P54753); assay: Inhibition of human EPHB3 assessed as percent of control at 2000 nM by KINOMEscan assay relative to control; parameters: scale not given: the % may be the effect or the level left
Chain of Ephrin type-B receptor 3 (Homo sapiens) (P54753 whole entry): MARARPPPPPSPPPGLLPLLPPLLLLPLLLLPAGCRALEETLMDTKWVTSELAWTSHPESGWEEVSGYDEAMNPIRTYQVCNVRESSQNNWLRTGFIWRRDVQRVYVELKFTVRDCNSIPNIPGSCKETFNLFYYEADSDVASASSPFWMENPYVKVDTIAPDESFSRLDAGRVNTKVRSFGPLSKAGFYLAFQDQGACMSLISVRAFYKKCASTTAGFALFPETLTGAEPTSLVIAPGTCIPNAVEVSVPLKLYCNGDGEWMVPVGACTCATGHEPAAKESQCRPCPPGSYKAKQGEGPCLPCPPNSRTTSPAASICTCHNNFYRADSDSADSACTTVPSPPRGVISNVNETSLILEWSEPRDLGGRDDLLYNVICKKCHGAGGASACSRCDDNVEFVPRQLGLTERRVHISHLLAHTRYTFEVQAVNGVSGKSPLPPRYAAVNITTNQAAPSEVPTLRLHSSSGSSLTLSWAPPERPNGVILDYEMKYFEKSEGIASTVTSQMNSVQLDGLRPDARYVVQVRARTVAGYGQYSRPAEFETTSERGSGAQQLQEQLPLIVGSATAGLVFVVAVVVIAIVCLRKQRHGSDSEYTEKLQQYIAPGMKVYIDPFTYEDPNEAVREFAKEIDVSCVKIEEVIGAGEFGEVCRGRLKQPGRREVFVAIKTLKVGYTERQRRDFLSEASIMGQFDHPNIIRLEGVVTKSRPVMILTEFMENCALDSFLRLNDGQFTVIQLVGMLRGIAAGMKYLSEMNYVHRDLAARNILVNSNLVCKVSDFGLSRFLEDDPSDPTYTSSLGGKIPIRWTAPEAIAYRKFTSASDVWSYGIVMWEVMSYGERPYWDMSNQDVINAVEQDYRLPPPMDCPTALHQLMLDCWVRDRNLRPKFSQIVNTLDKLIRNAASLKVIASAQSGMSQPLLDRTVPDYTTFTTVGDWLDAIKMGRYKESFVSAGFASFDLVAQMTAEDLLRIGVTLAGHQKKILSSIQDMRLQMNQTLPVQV

[19] = tested on: Epidermal growth factor receptor (Homo sapiens), P00533 [L858R,T790M]; assay: Inhibition of human EGFR L858R/T790M double mutant assessed as percent of control at 2000 nM by KINOMEscan assay relative to control; parameters: scale not given: the % may be the effect or the level left
[20] = target: Serine/threonine-protein kinase PLK2 (Homo sapiens) (UniProt Q9NYY3); assay: Inhibition of human PLK2 assessed as percent of control at 2000 nM by KINOMEscan assay relative to control; parameters: scale not given: the % may be the effect or the level left
[21] = target: Ribosomal protein S6 kinase alpha-2 (Homo sapiens) (UniProt Q15349); assay: Inhibition of human C-terminal RSK3 kinase domain 2 assessed as percent of control at 2000 nM by KINOMEscan assay relative to control; parameters: scale not given: the % may be the effect or the level left
[22] = target: Serine/threonine-protein kinase LATS2 (Homo sapiens) (UniProt Q9NRM7); assay: Inhibition of human LATS2 assessed as percent of control at 2000 nM by KINOMEscan assay relative to control; parameters: scale not given: the % may be the effect or the level left
[23] = tested on: Tyrosine-protein kinase ABL1 (Homo sapiens), P00519 [F317L]; assay: Inhibition of phosphorylated human ABL1 F317L mutant assessed as percent of control at 2000 nM by KINOMEscan assay relative to control; parameters: scale not given: the % may be the effect or the level left
[24] = target: Phosphatidylinositol 5-phosphate 4-kinase type-2 gamma (Homo sapiens) (UniProt Q8TBX8); assay: Inhibition of human PIP5K2C assessed as percent of control at 2000 nM by KINOMEscan assay relative to control; parameters: scale not given: the % may be the effect or the level left
[25] = target: Serine/threonine-protein kinase pim-3 (Homo sapiens) (UniProt Q86V86); assay: Inhibition of human PIM3 assessed as percent of control at 2000 nM by KINOMEscan assay relative to control; parameters: scale not given: the % may be the effect or the level left
[26] = target: Aurora kinase C (Homo sapiens) (UniProt Q9UQB9); assay: Inhibition of human AURKC assessed as percent of control at 2000 nM by KINOMEscan assay relative to control; parameters: scale not given: the % may be the effect or the level left
[27] = target: TGF-beta receptor type-2 (Homo sapiens) (UniProt P37173); assay: Inhibition of human TGFBR2 assessed as percent of control at 2000 nM by KINOMEscan assay relative to control; parameters: scale not given: the % may be the effect or the level left
[28] = target: Serine/threonine-protein kinase Sgk3 (Homo sapiens) (UniProt Q96BR1); assay: Inhibition of human SGK3 assessed as percent of control at 2000 nM by KINOMEscan assay relative to control; parameters: scale not given: the % may be the effect or the level left
[29] = target: Insulin receptor (Homo sapiens) (UniProt P06213); assay: Inhibition of human INSR assessed as percent of control at 2000 nM by KINOMEscan assay relative to control; parameters: scale not given: the % may be the effect or the level left

**Q.** How did the Activity [1] turn out when `CN(C)C(=O)c1ccc(N2CCCN(c3ccnc4sc(C(N)=O)c(N)c34)CC2)cc1` was run?
**A.** The Activity was 99% and 77%.

**Q.** And the Activity [2]?
**A.** Its Activity is 70% and 65%.

**Q.** And the Activity [3]?
**A.** The Activity was 90% and 96%.

**Q.** And the Activity [4]?
**A.** Its Activity is 91% and 98%.

**Q.** And the Activity [5]?
**A.** The Activity was 78% and 80%.

**Q.** And the Activity (MDA-MB-468)?
**A.** Its Activity is “Active”.

**Q.** And the Activity [6]?
**A.** The Activity was 63% and 76%.

**Q.** And the Activity [7]?
**A.** The Activity was 85% and 100%.

**Q.** What about the Activity [8] of the same compound?
**A.** Its Activity is 79% and 77%.

**Q.** What about the Activity [9] of the same compound?
**A.** Its Activity is 95% and 75%.

**Q.** What about the Activity [10] of the same compound?
**A.** The Activity was 100% and 78%.

**Q.** What about the Activity [11] of the same compound?
**A.** The Activity was 94% and 100%.

**Q.** And the Activity [12]?
**A.** The Activity was 75% and 85%.

**Q.** What about the Activity [13] of the same compound?
**A.** The Activity was 98% and 90%.

**Q.** And the Activity [14]?
**A.** Its Activity is 98% and 100%.

**Q.** And the Activity [15]?
**A.** The Activity was 94% and 82%.

**Q.** And the Activity [16]?
**A.** The Activity was 72% and 77%.

**Q.** And the Activity [17]?
**A.** Its Activity is 100% and 87%.

**Q.** And the Activity [18]?
**A.** Its Activity is 96% and 94%.

**Q.** And the Activity [19]?
**A.** Its Activity is 100% and 87%.

**Q.** What about the Activity [20] of the same compound?
**A.** Its Activity is 100% and 86%.

**Q.** What about the Activity [21] of the same compound?
**A.** The Activity was 100% and 89%.

**Q.** What about the Activity [22] of the same compound?
**A.** The Activity was 94%.

**Q.** And the Activity ([22]; INHIBITOR)?
**A.** The Activity was 31%.

**Q.** And the Activity [23]?
**A.** The Activity was 97% and 82%.

**Q.** What about the Activity [24] of the same compound?
**A.** Its Activity is 80% and 64%.

**Q.** What about the Activity [25] of the same compound?
**A.** The Activity was 89% and 98%.

**Q.** And the Activity [26]?
**A.** The Activity was 100%.

**Q.** And the Activity [27]?
**A.** The Activity was 100%.

**Q.** And the Activity [28]?
**A.** Its Activity is 79% and 80%.

**Q.** And the Activity [29]?
**A.** Its Activity is 97% and 80%.
